Drawing on BindingDB's records for doi:10.1016/j.bmc.2010.04.050 (Purdue University, 2010), this text covers IC50 for one molecule.

The test has as its target Low molecular weight phosphotyrosine protein phosphatase ACP1 (Homo sapiens) (UniProt P24666). The test is described as follows: Inhibition of human cytoplasmic protein tyrosine phosphatase A assessed as change in enzyme activity at pH 7.

Sequence of Low molecular weight phosphotyrosine protein phosphatase ACP1 (Homo sapiens) (P24666 whole entry, looked up): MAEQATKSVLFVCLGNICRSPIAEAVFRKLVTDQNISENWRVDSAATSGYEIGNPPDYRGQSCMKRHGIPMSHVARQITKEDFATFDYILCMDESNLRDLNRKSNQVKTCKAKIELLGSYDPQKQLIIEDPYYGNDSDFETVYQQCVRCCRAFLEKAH

In the case of `O=NC(Cc1ccnc2ccccc12)C(=O)O` (stereo unspecified) [2-(hydroxyimino)-3-(quinolin-4-yl)propanoic acid], the IC50 was 72 µM.
